Source: US8518928B2, “Therapeutic compounds” (Rutgers, The State University of New Jersey, priority 2006, dated 2013)
Where a name gives a salt, the structure may show the parent alone.

Legend:
[1] = tested on: SK-N-AS; conditions: human neuroblastoma cell line SK-N-AS; read-out: cytotoxicity IC50; cited from earlier work
[2] = tested on: LAN5; conditions: human neuroblastoma cell line LAN5; read-out: cytotoxicity IC50; cited from earlier work
[3] = tested on: bone marrow CD34-positive cells; conditions: cited from earlier work
[4] = tested on: MiaPaCa; conditions: human pancreatic carcinoma MiaPaCa; read-out: cytotoxicity IC50; cited from earlier work
[5] = tested on: LAN1; conditions: human neuroblastoma cell line LAN1; read-out: cytotoxicity IC50; cited from earlier work
[6] = tested on: WAC2; conditions: human neuroblastoma cell line WAC2; read-out: cytotoxicity IC50; cited from earlier work

Row | Structure (SMILES) | melting point [°C] | IC50 [1] [µM] | IC50 [2] [µM] | effect on BFU-E and CFU-GM [3] | IC50 [4] [µM] | IC50 [5] [µM] | IC50 [6] [µM]
1 | CC(C)C1NC(=O)c2coc(n2)-c2coc(n2)-c2coc(n2)C(CCCCN)NC(=O)c2coc(n2)-c2coc(n2)-c2coc1n2 (stereo not shown) (as salt: TFA) [Compound 15, Cyclic Lysine-Valine Amine TFA Salt] | 297 to 300 |  |  |  |  |  | 
2 | Cc1oc2nc1-c1nc(co1)-c1nc(co1)-c1nc(co1)-c1nc(co1)-c1nc(co1)C1=NC(CS1)c1nc-2c(C)o1 (stereo not shown) [Telomestatin] |  | 0.8 | 2.5 | much lesser effect | 0.5 | 4 | 3.2
